Data published in the NIST ThermoML archive (doi:10.1021/je400134d).

Assay: xn = mol fraction of the nth substance listed
Conditions: 100 kPa, Liquid; for speed of sound: Pulse-echo method; for mass density: Vibrating tube method

CNc1ccccc1 [N-methylaniline] + Cc1ccccc1
Conditions	mass density [kg/m3]	speed of sound [m/s]
293.15 K, x1 = 0.0541	873.9	1339.3
293.15 K, x1 = 0.0986	879.611	1350.5
293.15 K, x1 = 0.1502	886.145	1363.2
293.15 K, x1 = 0.1989	892.268	1375.1
293.15 K, x1 = 0.2473	898.297	1387
293.15 K, x1 = 0.2982	904.623	1399.7
293.15 K, x1 = 0.35	910.972	1412.6
293.15 K, x1 = 0.3898	915.862	1422.7
293.15 K, x1 = 0.446	922.654	1436.8
293.15 K, x1 = 0.4872	927.615	1447.3
293.15 K, x1 = 0.5426	934.227	1461.5
293.15 K, x1 = 0.5859	939.349	1472.7
293.15 K, x1 = 0.6441	946.179	1487.8
293.15 K, x1 = 0.6894	951.429	1499.7
293.15 K, x1 = 0.7385	957.096	1512.7
293.15 K, x1 = 0.7823	962.1	1524.3
293.15 K, x1 = 0.8377	968.392	1539.6
293.15 K, x1 = 0.8834	973.522	1551.3
293.15 K, x1 = 0.9299	978.698	1563.7
298.15 K, x1 = 0.0532	869.146	1317.9
298.15 K, x1 = 0.0998	875.098	1329.6
298.15 K, x1 = 0.1518	881.77	1342.7
298.15 K, x1 = 0.1906	886.675	1352.4
298.15 K, x1 = 0.2452	893.525	1366
298.15 K, x1 = 0.2887	898.955	1377
298.15 K, x1 = 0.3417	905.492	1390.3
298.15 K, x1 = 0.39	911.437	1402.7
298.15 K, x1 = 0.4434	917.945	1416.3
298.15 K, x1 = 0.49	923.58	1428.3
298.15 K, x1 = 0.5415	929.747	1441.7
298.15 K, x1 = 0.5792	934.236	1451.5
298.15 K, x1 = 0.6432	941.787	1468.4
298.15 K, x1 = 0.6868	946.88	1479.9
298.15 K, x1 = 0.7407	953.128	1494.3
298.15 K, x1 = 0.7823	957.907	1505.4
298.15 K, x1 = 0.8378	964.233	1520.4
298.15 K, x1 = 0.8844	969.501	1533
298.15 K, x1 = 0.934	975.057	1546.4
303.15 K, x1 = 0.053	864.574	1297.3
303.15 K, x1 = 0.0982	870.409	1308.8
303.15 K, x1 = 0.1501	877.091	1321.9
303.15 K, x1 = 0.1929	882.501	1332.7
303.15 K, x1 = 0.2456	889.168	1346.1
303.15 K, x1 = 0.2837	893.953	1355.7
303.15 K, x1 = 0.3444	901.518	1371.2
303.15 K, x1 = 0.3919	907.37	1383.4
303.15 K, x1 = 0.4478	914.21	1397.8
303.15 K, x1 = 0.4918	919.549	1409.3
303.15 K, x1 = 0.5391	925.243	1421.7
303.15 K, x1 = 0.5886	931.18	1434.7
303.15 K, x1 = 0.6395	937.212	1448.2
303.15 K, x1 = 0.6846	942.503	1460.2
303.15 K, x1 = 0.7398	948.933	1475
303.15 K, x1 = 0.7782	953.381	1485.3
303.15 K, x1 = 0.842	960.67	1502.3
303.15 K, x1 = 0.879	964.897	1512.7
303.15 K, x1 = 0.934	971.087	1527.6

CNc1ccccc1 [N-methylaniline] + C1CCCCC1
Conditions	mass density [kg/m3]	speed of sound [m/s]
293.15 K, x1 = 0.0516	787.947	1285.7
293.15 K, x1 = 0.1047	798.075	1294.4
293.15 K, x1 = 0.1522	807.416	1303
293.15 K, x1 = 0.2023	817.479	1313.2
293.15 K, x1 = 0.2482	826.755	1322.9
293.15 K, x1 = 0.3018	837.718	1335.3
293.15 K, x1 = 0.3462	846.906	1346.3
293.15 K, x1 = 0.4049	859.091	1362
293.15 K, x1 = 0.4478	868.011	1374.1
293.15 K, x1 = 0.4972	878.435	1389.1
293.15 K, x1 = 0.5444	888.383	1404.1
293.15 K, x1 = 0.5942	898.936	1420.7
293.15 K, x1 = 0.6445	909.64	1438.3
293.15 K, x1 = 0.6931	920.029	1456
293.15 K, x1 = 0.7564	933.633	1480.3
293.15 K, x1 = 0.7917	941.225	1494.2
293.15 K, x1 = 0.8372	951.07	1512.7
293.15 K, x1 = 0.89	962.5	1534.8
293.15 K, x1 = 0.9446	974.383	1558.2
298.15 K, x1 = 0.0673	786.236	1264.5
298.15 K, x1 = 0.1073	793.946	1271.7
298.15 K, x1 = 0.1609	804.548	1282
298.15 K, x1 = 0.2065	813.772	1291.8
298.15 K, x1 = 0.2536	823.353	1302.3
298.15 K, x1 = 0.2963	832.165	1312.6
298.15 K, x1 = 0.3554	844.401	1327.8
298.15 K, x1 = 0.3981	853.363	1339.6
298.15 K, x1 = 0.4479	863.765	1354
298.15 K, x1 = 0.5055	875.962	1371.8
298.15 K, x1 = 0.5537	886.222	1387.5
298.15 K, x1 = 0.5968	895.414	1402.5
298.15 K, x1 = 0.6482	906.388	1420.6
298.15 K, x1 = 0.6939	916.254	1437.6
298.15 K, x1 = 0.753	928.945	1460.4
298.15 K, x1 = 0.795	938.08	1477.2
298.15 K, x1 = 0.8347	946.748	1493.6
298.15 K, x1 = 0.8896	958.645	1516.7
298.15 K, x1 = 0.9399	969.599	1538.5
303.15 K, x1 = 0.0581	779.854	1239.8
303.15 K, x1 = 0.1038	788.651	1248.4
303.15 K, x1 = 0.1557	798.906	1258.8
303.15 K, x1 = 0.2015	808.134	1268.8
303.15 K, x1 = 0.2526	818.565	1280.6
303.15 K, x1 = 0.2975	827.884	1291.7
303.15 K, x1 = 0.3479	838.328	1304.9
303.15 K, x1 = 0.3974	848.695	1318.7
303.15 K, x1 = 0.451	859.961	1334.5
303.15 K, x1 = 0.5005	870.442	1351.5
303.15 K, x1 = 0.5512	881.294	1366.7
303.15 K, x1 = 0.5922	890.064	1380.8
303.15 K, x1 = 0.6575	904.033	1404.2
303.15 K, x1 = 0.6956	912.351	1418.6
303.15 K, x1 = 0.7501	924.185	1439.9
303.15 K, x1 = 0.7995	934.921	1459.7
303.15 K, x1 = 0.8447	944.844	1478.6
303.15 K, x1 = 0.8956	955.901	1500
303.15 K, x1 = 0.9411	965.875	1520
